The text below walks through data of ChEMBL document CHEMBL1933053, “Efficient microwave-assisted synthesis, antibacterial activity and high fluorescence of 5 benzimidazolyl-2'-deoxyuridines” (2012).

For test [1], the system named is Human immunodeficiency virus. The experiment in a line: Antiviral activity against HIV infected in human MT4 cells assessed as inhibition of virus-induced cytopathogenicity by MTT assay. The format is functional, organism-based. (In general: Cytopathic effects are the visible damage that an infection or toxin causes in cultured cells.)
The subject of test [2] is Pseudomonas aeruginosa. Put plainly: Antibacterial activity against Pseudomonas aeruginosa ATCC 27853 after overnight incubation by twofold broth dilution technique. The class given is functional.
Test [3] relates to Escherichia coli. Put plainly: Antibacterial activity against Escherichia coli ATCC 25922 after overnight incubation by twofold broth dilution technique. The format is functional. In general terms: Dilution methods test growth across graded concentrations, often in twofold steps.
Test [4] relates to Streptococcus pneumoniae. The experiment in a line: Antibacterial activity against Streptococcus pneumoniae expressing PenR gene after overnight incubation by twofold broth dilution technique in presence of 2.5% blood. The class given is functional.
The subject of test [5] is Haemophilus influenzae. Put plainly: Antibacterial activity against Haemophilus influenzae ATCC 31517 after overnight incubation by twofold broth dilution technique. The class given is functional.
Test [6] concerns Streptococcus pneumoniae. Put plainly: Antibacterial activity against Streptococcus pneumoniae expressing PenR gene after overnight incubation by twofold broth dilution technique. The class given is functional.
For test [7], the system named is Enterococcus faecium. Put plainly: Antibacterial activity against Enterococcus faecium expressing VanA gene after overnight incubation by twofold broth dilution technique. The format is functional.
Test [8] has as its system Streptococcus pneumoniae. The experiment in a line: Antibacterial activity against Streptococcus pneumoniae ATCC 49619 after overnight incubation by twofold broth dilution technique. The format is functional.
The subject of test [9] is Enterococcus faecalis. Put plainly: Antibacterial activity against Enterococcus faecalis ATCC 29212 expressing VanS gene after overnight incubation by twofold broth dilution technique. The class given is functional.
In test [10] the test system is Staphylococcus aureus. The experiment in a line: Antibacterial activity against Staphylococcus aureus after overnight incubation by twofold broth dilution technique. The format is functional.
Test [11] deals with Staphylococcus aureus. The experiment in a line: Antibacterial activity against Staphylococcus aureus ATCC 25923 after overnight incubation by twofold broth dilution technique in presence of 50% human serum. The class given is functional.
In test [12] the test system is Staphylococcus aureus. The experiment in a line: Antibacterial activity against Staphylococcus aureus ATCC 25923 after overnight incubation by twofold broth dilution technique. The class given is functional.
For test [13], the system named is Staphylococcus aureus. Put plainly: Antibacterial activity against Staphylococcus aureus ATCC 25923 after overnight incubation by twofold broth dilution technique in presence of 10% human serum. The class given is functional.
In test [14] the test system is Staphylococcus aureus. The experiment in a line: Antibacterial activity against Staphylococcus aureus ATCC 13709 after overnight incubation by twofold broth dilution technique. The class given is functional.
Test [15] relates to Staphylococcus aureus. The experiment in a line: Antibacterial activity against methicillin-resistant Staphylococcus aureus after overnight incubation by twofold broth dilution technique. The class given is functional.

Converted amounts (≈) assume the structure as drawn. The source made the active and inactive calls. The calls are words filed in the database; no cut-off is given here.

In the case of `O=c1[nH]c(=O)n([C@H]2C[C@H](O)[C@@H](CO)O2)cc1-c1nc2cc3ccccc3cc2[nH]1`, the inhibition entry in [1] is “inactive”. Moreover, the MIC in test [2], in test [3], in [4], in test [5], in test [6] and in test [7] was greater than 64 µg/mL throughout. Further, the MIC in test [8], in test [9], in test [10], in test [11], in [12] and in test [13] was greater than 64 µg/mL each time. The compound also displayed an MIC in test [14] greater than 64 µg/mL.

As for `O=c1[nH]c(=O)n([C@H]2C[C@H](O)[C@@H](CO)O2)cc1-c1nc2ccc(C(F)(F)F)cc2[nH]1`, in test [1], the inhibition result was “inactive”. Besides, the MIC in [2] was greater than 64 µg/mL; in test [3], greater than 64 µg/mL; in [4], 64 µg/mL; in [5] it was 4 µg/mL (≈ 9.7 µM); in [6], 32 µg/mL (≈ 77.6 µM); in test [7] it was 64 µg/mL (≈ 155 µM). For the same compound, the MIC in test [8] is 64 µg/mL (≈ 155 µM); in test [9] it was greater than 64 µg/mL; in test [10], greater than 64 µg/mL; in [11], greater than 64 µg/mL; in test [12], greater than 64 µg/mL; in test [13], greater than 64 µg/mL. Also, in [14], the MIC was greater than 64 µg/mL.

With `Cc1ccc2nc(-c3cn([C@H]4C[C@H](O)[C@@H](CO)O4)c(=O)[nH]c3=O)[nH]c2c1`, the inhibition result in test [1] is “inactive”. For the same compound, the MIC in [2], in [3], in [4], in test [5], in test [6] and in [7] was greater than 64 µg/mL throughout. The MIC in test [8], in test [9], in test [10], in [11], in [12] and in test [13] was greater than 64 µg/mL in each case. This compound also returned an MIC in test [14] greater than 64 µg/mL.

`O=c1[nH]c(=O)n([C@H]2C[C@H](O)[C@@H](CO)O2)cc1-c1nc2cc(C(F)(F)F)cc(Cl)c2[nH]1`: the inhibition result in [1] was “inactive”. Moreover, the MIC is greater than 64 µg/mL in test [2]; greater than 64 µg/mL in test [3]; 16 µg/mL in test [4]; greater than 64 µg/mL in [5]; 4 µg/mL (≈ 8.95 µM) in test [6]; 1 µg/mL (≈ 2.24 µM) in test [7]. The MIC is 4 µg/mL (≈ 8.95 µM) in test [8]; 2 µg/mL (≈ 4.48 µM) in [9]; 2 µg/mL (≈ 4.48 µM) in [10]; 2 µg/mL (≈ 4.48 µM) in test [15]; greater than 64 µg/mL in test [11]; 2 µg/mL (≈ 4.48 µM) in [12]. The MIC in [13] was greater than 64 µg/mL; in test [14], 2 µg/mL (≈ 4.48 µM).

Regarding `O=C(O)c1cn(C2CC2)c2cc(N3CCNCC3)c(F)cc2c1=O` [CIPROFLOXACIN], the MIC was no more than 0.03 µg/mL in test [3]; no more than 0.03 µg/mL in [5]; 16 µg/mL (≈ 48.3 µM) in test [7]; 1 µg/mL (≈ 3.02 µM) in test [8]; 0.5 µg/mL (≈ 1.51 µM) in test [9]; 0.12 µg/mL (≈ 0.362 µM) in test [10]. For the same compound, the MIC stood at 8 µg/mL (≈ 24.1 µM) in test [15]; 0.5 µg/mL in [11]; 0.25 µg/mL (≈ 0.754 µM) in [12]; 0.25 µg/mL in [13]; 0.12 µg/mL (≈ 0.362 µM) in [14].

Regarding `O=c1[nH]c(=O)n([C@H]2C[C@H](O)[C@@H](CO)O2)cc1-c1nc2c3ccccc3c3ccccc3c2[nH]1`, the inhibition entry in test [1] was “inactive”. The MIC in test [2], in test [3], in test [4], in test [5], in test [6] and in test [7] was greater than 64 µg/mL each time. In addition, the MIC in [8], in test [9], in test [10], in [11], in test [12] and in [13] was greater than 64 µg/mL each time. Besides, in test [14], the MIC was greater than 64 µg/mL.

In the case of `COc1ccc2nc(-c3cn([C@H]4C[C@H](O)[C@@H](CO)O4)c(=O)[nH]c3=O)[nH]c2c1`, the inhibition entry in [1] is “inactive”. Further, the MIC in test [2], in [3], in test [4], in test [5], in [6] and in [7] was greater than 64 µg/mL in each case. The MIC in test [8], in [9], in test [10], in test [11], in test [12] and in [13] was greater than 64 µg/mL in each case. For the same compound, the MIC in [14] is greater than 64 µg/mL.

For the compound `O=c1[nH]c(=O)n([C@H]2C[C@H](O)[C@@H](CO)O2)cc1-c1nc2ccc(F)cc2[nH]1`, in [1], the inhibition result was “inactive”. Besides, the MIC in test [2], in [3], in test [4], in test [5], in test [6] and in [7] was greater than 64 µg/mL in each case. Also, the MIC in [8], in test [9], in test [10], in test [11], in test [12] and in test [13] was greater than 64 µg/mL in each case. Besides, in test [14], the MIC is greater than 64 µg/mL.

As for `O=c1[nH]c(=O)n([C@H]2C[C@H](O)[C@@H](CO)O2)cc1-c1nc2ccccc2[nH]1`, in test [1], the inhibition entry is “inactive”. Besides, the MIC in test [2], in test [3], in test [4], in [5], in test [6] and in test [7] was greater than 64 µg/mL each time. The MIC in [8], in test [9], in test [10], in test [11], in [12] and in test [13] was greater than 64 µg/mL throughout. This compound also showed an MIC in [14] greater than 64 µg/mL.

Consider `CC(=O)NC[C@H]1CN(c2ccc(N3CCOCC3)c(F)c2)C(=O)O1` [LINEZOLID], for which the MIC in test [2] is greater than 32 µg/mL; in test [3] it was greater than 32 µg/mL; in [4], 0.25 µg/mL; in [5], 16 µg/mL (≈ 47.4 µM); in [7], 0.5 µg/mL (≈ 1.48 µM); in test [10] it was 1 µg/mL (≈ 2.96 µM). The MIC stood at 1 µg/mL (≈ 2.96 µM) in test [15], 1 µg/mL (≈ 2.96 µM) in [12], 1 µg/mL in test [13] and 1 µg/mL (≈ 2.96 µM) in [14].
